In paper PMC11020896, “Development of a ^99mTc-labeled tetrazine for pretargeted SPECT imaging using an alendronic acid-based bone targeting model” (PLOS ONE, 2024):
One block for each compound: values may come before it.

Legend:
[1] = system: Healthy Balb/c female mice; experiment: SPECT/CT quantitative image analysis of 99mTc-labeled Tzs (pretargeted with Aln-TCO, saline control, or directly targeted); type: in vivo; conditions: for blood pool activity: directly targeted Aln-TCO
Protocol: (§1) The study was conducted in compliance with the guidelines set by the Canadian Council on Animal Care (CCAC) and approved by the Animal Care Committee (ACC) at the University of British Columbia (A20-0132). Healthy Balb/c female mice (~25 g) were anesthetized using isoflurane delivered via a precision vaporizer (5% in oxygen for induction, between 1.5 and 2.5% in oxygen for maintenance) and received 100 μL of a 2 mg/kg solution of Aln-TCO in saline (pretargeted groups), or 100 μL saline (control groups) via intravenous injection. After 1 h, mice were anesthetized again and received another i.v. injection containing 100 μL of ^99mTc labeled Tzs in saline, with an average activity of 17.58 MBq, as well as a subcutaneous injection of Lactated Ringer’s solution (0.5 mL) to ensure hydration before each imaging scan. After the injection, a VECTor/CT multimodal preclinical scanner (MILabs, The Netherlands) equipped with a HEUHR-1 mm mouse pinhole collimator was used to obtain static whole-body images. The first scans were obtained with a single frame lasting 25 minutes, followed by scans at 2- and 6-hours post-injection, each with a single frame lasting 40 and 50 minutes, respectively.
Throughout the scanning process, mice were maintained under isoflurane anesthesia and kept warm with a heating pad to ensure constant body temperature. Following each SPECT acquisition, a whole-body CT scan was performed to obtain anatomical information and the two images were registered. The ^99mTc photopeak window was centered at 140 keV with a 25% energy window width. SPECT image reconstructions were carried out using a pixel-ordered subset expectation maximization (POSEM) algorithm with 16 subsets, 6 iterations, and an isotropic 0.4 mm voxel grid to enable quantitative analysis. The images were decay corrected, and after CT registration, attenuation correction was applied. For visual representation, the reconstructed volumes of SPECT scans were post-filtered with a 3D Gaussian filter. CT scans were conducted using a tube setting of 55 kV and 615 μA, and 2 frames of 180 projections over 360 degrees were captured in step and shoot rotation mode. The acquired projection data was reconstructed using SkyScan NRecon software to generate a 3D CT image on 0.169 mm^3 voxel size. Volumes of interest (VOIs), in the left ventricle of the heart (blood pool), liver (n = 3), bladder, kidney (n = 2), shoulder and knee joint (n = 2, respectively) were manually defined using AMIDE [49] (v.1.0.5) to determine the time activity pattern per target organ. The average organ activity per volume was obtained from the SPECT images and the %ID/g of tissue were extracted from each organ. To relate the scanner units (counts/pixel) to radioactivity concentration (MBq/mL), a calibration factor was determined scanning a source with a known concentration of ^99mTc. Following the last time imaging time point (6 h, except mice injected with ^99mTc-3, which were sacrificed 24 h p.i.), mice were sacrificed via CO2 asphyxiation under isoflurane anesthesia. Blood was recovered via cardiac puncture and organs of interest were dissected out, cleaned and weighed. The bone uptake of the shoulder was measured by measuring the activity of scapula and humerus, cut below the elbow joint, while knee uptake was measured in the femur, cut below the knee joint. […] The activity was quantified on a calibrated Cobra II Autogamma counter (Packard Instruments, USA) and decay corrected to the time of injection. […]

[2] = system: Healthy Balb/c female mice; experiment: Post-mortem (ex vivo) biodistribution after last imaging time point, gamma counter; type: in vivo
Protocol: as §1
Throughout the scanning process, mice were maintained under isoflurane anesthesia and kept warm with a heating pad to ensure constant body temperature. Following each SPECT acquisition, a whole-body CT scan was performed to obtain anatomical information and the two images were registered. The ^99mTc photopeak window was centered at 140 keV with a 25% energy window width. SPECT image reconstructions were carried out using a pixel-ordered subset expectation maximization (POSEM) algorithm with 16 subsets, 6 iterations, and an isotropic 0.4 mm voxel grid to enable quantitative analysis. The images were decay corrected, and after CT registration, attenuation correction was applied. For visual representation, the reconstructed volumes of SPECT scans were post-filtered with a 3D Gaussian filter. CT scans were conducted using a tube setting of 55 kV and 615 μA, and 2 frames of 180 projections over 360 degrees were captured in step and shoot rotation mode. The acquired projection data was reconstructed using SkyScan NRecon software to generate a 3D CT image on 0.169 mm^3 voxel size. Volumes of interest (VOIs), in the left ventricle of the heart (blood pool), liver (n = 3), bladder, kidney (n = 2), shoulder and knee joint (n = 2, respectively) were manually defined using AMIDE [49] (v.1.0.5) to determine the time activity pattern per target organ. The average organ activity per volume was obtained from the SPECT images and the %ID/g of tissue were extracted from each organ. To relate the scanner units (counts/pixel) to radioactivity concentration (MBq/mL), a calibration factor was determined scanning a source with a known concentration of ^99mTc. Following the last time imaging time point (6 h, except mice injected with ^99mTc-3, which were sacrificed 24 h p.i.), mice were sacrificed via CO2 asphyxiation under isoflurane anesthesia. Blood was recovered via cardiac puncture and organs of interest were dissected out, cleaned and weighed. The bone uptake of the shoulder was measured by measuring the activity of scapula and humerus, cut below the elbow joint, while knee uptake was measured in the femur, cut below the knee joint. Bone samples were thoroughly cleaned from muscle and connective tissue. The activity was quantified on a calibrated Cobra II Autogamma counter (Packard Instruments, USA) and decay corrected to the time of injection.

[3] = directly targeted Aln-TCO, biodistribution 6 h p.i., ratio of %ID/g
[4] = directly targeted Aln-TCO, sacrificed 6 h p.i.

Compound: O=C(O)CN(CCNC(=O)CCOCCOCCOCCOCCOCCOCCOCCOCCNC(=O)CCCC(=O)Nc1ccc(-c2nncnn2)cc1)Cc1cccc(C(=O)O)n1 [Tz 4, 6-(38-((4-(1,2,4,5-tetrazin-3-yl)phenyl)amino)-2-(carboxymethyl)-6,34,38-trioxo-9,12,15,18,21,24,27,30-octaoxa-2,5,33-triazaoctatriacontyl)picolinic acid]
bone accumulation, pretargeted vs. non-targeted group ([1]; image analysis of shoulder and knee at 0, 2 and 6 h p.i.): did not show statistically significant bone uptake at any time point compared to the saline control

difference in blood pool activity, 1* vs 1a ([1]; 6 h p.i.): 15 fold | blood pool activity ([1]; image analysis, 0 h): 27.35 ± 3.79 %ID/g | liver activity over time ([1]; image analysis, 0-6 h, directly targeted): increase over time | blood pool activity ([1]; image analysis, 6 h p.i.): 3.66 ± 0.65 %ID/g | Knee/Blood ratio [2, 3]: 2.39 ± 0.09 | Knee/Liver ratio [2, 3]: 0.17 ± 0.09 | Shoulder/Blood ratio [2, 3]: 1.29 ± 0.30 | Shoulder/Liver ratio [2, 3]: 0.09 ± 0.30 | Bladder activity, post-mortem biodistribution [2, 4]: 1.22 ± 0.04 % ID/g | Blood activity, post-mortem biodistribution [2, 4]: 3.82 ± 0.32 % ID/g | Brain activity, post-mortem biodistribution [2, 4]: 0.10 ± 0.01 % ID/g | Heart activity, post-mortem biodistribution [2, 4]: 2.87 ± 0.27 % ID/g | Intestine activity, post-mortem biodistribution [2, 4]: 3.85 ± 0.49 % ID/g | Kidney activity, post-mortem biodistribution [2, 4]: 9.04 ± 0.60 % ID/g | Knee activity, post-mortem biodistribution [2, 4]: 9.13 ± 0.73 % ID/g | Liver activity, post-mortem biodistribution [2, 4]: 54.39 ± 4.03 % ID/g | Lung activity, post-mortem biodistribution [2, 4]: 6.70 ± 0.85 % ID/g | Muscle activity, post-mortem biodistribution [2, 4]: 0.31 ± 0.01 % ID/g | Pancreas activity, post-mortem biodistribution [2, 4]: 1.20 ± 0.20 % ID/g | Shoulder activity, post-mortem biodistribution [2, 4]: 4.91 ± 1.43 % ID/g | Spleen activity, post-mortem biodistribution [2, 4]: 38.03 ± 4.69 % ID/g | Stomach activity, post-mortem biodistribution [2, 4]: 1.70 ± 0.10 % ID/g | uptake in liver and spleen ([2]; directly targeted, 6 h p.i.): strong uptake
Compound: O=C(O)CN(CCNC(=O)CCCC(=O)Nc1ccc(-c2nnc(-c3ccccn3)nn2)nc1)Cc1cccc(C(=O)O)n1 (99mTc complex, metal not drawn) [Tz 1, 6-(((carboxymethyl)(2-(5-oxo-5-((6-(6-(pyridin-2-yl)-1,2,4,5-tetrazin-3-yl)pyridin-3-yl)amino)pentanamido)ethyl)amino)methyl)picolinic acid]
